In brackets after ≈: the same amount, converted by molar mass. Read-outs that look alike come from different tables or passages of the source.
Assays:
[1] = system: Enterococcus faecalis (VRE, ATCC 51575); experiment: Antibacterial test (MIC), Gram-positive bacteria; format: cell-based
Description: (§1) As for the Gram-negative bacteria, E. coli (ATCC 10536, ATCC 25922), Klebsiella pneumonia (ATCC 10031), Proteus vulgaris (ATCC 13315), Pseudomonas aeruginosa (ATCC 9027), and Salmonella typhimurium (ATCC 13311) were used, and as for the Gram-positive bacteria, Staphylococcus aureus, MRSA (ATCC 33591), Staphylococcus epidermidis (ATCC 12228), Streptococcus pneumonia (ATCC 6301), Mycobacterium ranae (ATCC 110), and Enterococcus faecalis (VRE, ATCC 51575) were used. The various bacteria were cultured at 37° C. for 20 to 48 hours by conventional methods, and the minimum growth inhibitory concentration (MIC, μg/ml) was determined. Each of the specimens was dissolved in a 1% DMSO solution. Furthermore, amoxicillin, clarithromycin and gentamycin were used as control drugs of antibacterial substance.

[2] = system: Streptococcus pneumonia (ATCC 6301); experiment: Antibacterial test (MIC), Gram-positive bacteria; format: cell-based; conditions: Streptococcus pneumoniae, ATCC6301
Description: as §1

[3] = system: Staphylococcus aureus, MRSA (ATCC 33591); experiment: Antibacterial test (MIC), Gram-positive bacteria; format: cell-based
Description: as §1

[4] = system: clinically separated clarithromycin-resistant strains and amoxicillin-insensitive strains of Helicobacter pylori; experiment: Antibacterial potency (MIC) against clarithromycin-resistant and amoxicillin-insensitive strains, Pharmacological Test Example 3; format: cell-based
Experimental: A test was conducted on the antibacterial potency of the compounds of the present invention against the clarithromycin-resistant strains and amoxicillin-insensitive strains of the bacterium Helicobacter pylori.
A test was conducted on the antibacterial potency of the compounds of the present invention, using clinically separated clarithromycin-resistant strains and amoxicillin-insensitive strains of the bacterium Helicobacter pylori. For the respective strains, in vitro tests were performed in Columbia agar medium. Each of the specimens was dissolved in a 1% DMSO solution. The bacteria were cultured at 37° C. and pH 7.0 for 3 days, and on the 4th day, the minimum growth inhibitory concentration (MIC, μg/ml) was determined.

[5] = system: Escherichia coli (ATCC 10536); experiment: Antibacterial test (MIC), Gram-negative bacteria; format: cell-based
Description: as §1

[6] = system: Salmonella typhimurium (ATCC 13311); experiment: Antibacterial test (MIC), Gram-negative bacteria; format: cell-based
Description: as §1

[7] = system: Escherichia coli (ATCC 25922); experiment: Antibacterial test (MIC), Gram-negative bacteria; format: cell-based
Description: as §1

[8] = system: Pseudomonas aeruginosa (ATCC 9027); experiment: Antibacterial test (MIC), Gram-negative bacteria; format: cell-based
Description: as §1

[9] = system: Proteus vulgaris (ATCC 13315); experiment: Antibacterial test (MIC), Gram-negative bacteria; format: cell-based
Description: as §1

[10] = system: Helicobacter pylori bacteria (ATCC 43504); experiment: Antiulcer action and bacteria eradicating action in Helicobacter pylori-infected Mongolian gerbils; format: in vivo; conditions: for Number of Bacteria (average) (log CFU): gastric mucosa
Experimental: Mongolian gerbils were experimentally infected with Helicobacter pylori bacteria, and the antiulcer action and the Helicobacter pylori bacteria eradicating action of the compounds of the present invention were tested.
Male Mongolian gerbils (30 to 40 g), five animals in each group, were orally inoculated with Helicobacter pylori bacteria (ATCC 43504) at 1.6×10^7 CFU/0.5 ml/mouse, and bred for one week, and then drug was administered two times a day for two weeks. Thereafter, the […] were bred for three weeks, and then the rats were fasted for 18 hours and subjected to abdominal section, followed by autopsy. The severity of gastric ulcer, the number of Helicobacter pylori bacteria in the gastric mucosa, and the antibody titer were measured.

[11] = system: Helicobacter pylori standard strains ATCC 43504, ATCC 43629, ATCC 43570 and clinically separated strains; experiment: Anti-Helicobacter pylori activity (MIC), standard and clinically separated strains, Pharmacological Test Example 2; format: cell-based
Experimental: For the bacterium Helicobacter pylori, standard strains ATCC 43504, ATCC 43629 and ATCC 43570 were used to perform in vitro tests in Columbia agar medium. The bacteria were cultured at 37° C. and pH 7.0 for 3 days. On the 4th day, the minimum growth inhibitory concentration (MIC, μg/ml) was determined. Each of the specimens was dissolved in a 1% DMSO solution. Furthermore, amoxicillin and clarithromycin were used as control drugs of antibacterial substance. Further, the compound described in the article of Thomas C. Kuehler (J. Med.

[12] = system: Staphylococcus epidermidis (ATCC 12228); experiment: Antibacterial test (MIC), Gram-positive bacteria; format: cell-based
Description: as §1

[13] = system: Mycobacterium ranae (ATCC 110); experiment: Antibacterial test (MIC), Gram-positive bacteria; format: cell-based
Description: as §1

[14] = system: Klebsiella pneumonia (ATCC 10031); experiment: Antibacterial test (MIC), Gram-negative bacteria; format: cell-based
Description: as §1

[15] = Helicobacter pylori, AMO-insensitive strain NO. 4, read-out: MIC
[16] = Helicobacter pylori, CAM-resistant strain NO. 1, read-out: MIC
[17] = Helicobacter pylori, CAM-resistant strain NO. 2, read-out: MIC
[18] = Helicobacter pylori, CAM-resistant strain NO. 3, read-out: MIC
[19] = Helicobacter pylori, CAM-resistant strain NO. 4, read-out: MIC
[20] = Salmonella enterica, read-out: MIC
[21] = Clinically separated strain PT1045482
[22] = Clinically separated strain PT1045483
[23] = Clinically separated strain PT1045484

| Compound | MIC [1] [µg/mL] | MIC [2] [µg/mL] | MIC ([3]; read-out: MIC) [µg/mL] | MIC [4, 15] [µg/mL] | MIC [4, 16] [µg/mL] | MIC [4, 17] [µg/mL] | MIC [4, 18] [µg/mL] | MIC [4, 19] [µg/mL] | MIC ([5]; ATCC10536, read-out: MIC) [µg/mL] | MIC [6, 20] [µg/mL] | MIC ([7]; ATCC25922, read-out: MIC) [µg/mL] | MIC ([8]; ATCC9027, read-out: MIC) [µg/mL] | MIC ([9]; ATCC13315, read-out: MIC) [µg/mL] | MIC [11, 21] [µg/mL] | MIC [11, 22] [µg/mL] | MIC [11, 23] [µg/mL] | MIC ([11]; Standard strain ATCC 43504) [µg/mL] | MIC ([11]; Standard strain ATCC 43570) [µg/mL] | MIC ([11]; Standard strain ATCC 43629) [µg/mL] | also measured |
| --- | --- | --- | --- | --- | --- | --- | --- | --- | --- | --- | --- | --- | --- | --- | --- | --- | --- | --- | --- | --- |
| CC1(C)S[C@@H]2[C@H](NC(=O)[C@H](N)c3ccc(O)cc3)C(=O)N2[C@H]1C(=O)O [AMPC, Amoxicillin] | 0.3 (≈ 0.821 µM) | 0.01 (≈ 0.0274 µM) | 0.1 (≈ 0.274 µM) | 0.12 (≈ 0.328 µM) | < 0.015 | < 0.015 | < 0.015 | < 0.015 | 6.25 (≈ 17.1 µM) | 0.3 (≈ 0.821 µM) | 6.25 (≈ 17.1 µM) | > 100 | 6.25 (≈ 17.1 µM) | 0.06 (≈ 0.164 µM) | 0.06 (≈ 0.164 µM) | 0.06 (≈ 0.164 µM) | 0.06 (≈ 0.164 µM) | < 0.015 | 0.06 (≈ 0.164 µM) | MIC ([4]; AMO-insensitive strain NO. 2): 0.25 µg/mL (≈ 0.684 µM); MIC ([4]; AMO-insensitive strain NO. 3): 0.25 µg/mL (≈ 0.684 µM); MIC ([4]; Helicobacter pylori): 0.25 µg/mL (≈ 0.684 µM); Antibody titer (average) ([10]; 10 mg/kg): 0.40; Number of Bacteria (average) (log CFU) ([10]; 10 mg/kg): 5.0 log CFU; Number of Ulcers discovered ([10]; 10 mg/kg, two times a day for two weeks): 4/5; responders at 10 mg/kg ([10]; Helicobacter pylori, ATCC43504, 336 h, 10 mg/kg, two times a day for two weeks, read-out: Eradication rate (%)): 20% |
| CC[C@H]1OC(=O)[C@H](C)[C@@H](O[C@H]2C[C@@](C)(OC)[C@@H](O)[C@H](C)O2)[C@H](C)[C@@H](O[C@@H]2O[C@H](C)C[C@H](N(C)C)[C@H]2O)[C@](C)(OC)C[C@@H](C)C(=O)[C@H](C)[C@@H](O)[C@]1(C)O [CAM, Clarithromycin] | 0.1 (≈ 0.134 µM) | 0.02 (≈ 0.0267 µM) | 0.1 (≈ 0.134 µM) | 0.03 (≈ 0.0401 µM) | 32 (≈ 42.8 µM) | 8 (≈ 10.7 µM) | 64 (≈ 85.6 µM) | 32 (≈ 42.8 µM) | 50 (≈ 66.8 µM) | 25 (≈ 33.4 µM) | 50 (≈ 66.8 µM) | > 100 | 100 (≈ 134 µM) | 0.3 (≈ 0.401 µM) | 0.3 (≈ 0.401 µM) | 0.3 (≈ 0.401 µM) | 0.1 (≈ 0.134 µM) | < 0.015 | 0.1 (≈ 0.134 µM) | MIC ([4]; Helicobacter pylori, AMO-insensitive strain NO. 1, read-out: MIC): 0.06 µg/mL (≈ 0.0802 µM); MIC ([4]; Helicobacter pylori, AMO-insensitive strain NO. 2, read-out: MIC): 0.03 µg/mL (≈ 0.0401 µM); MIC ([4]; Helicobacter pylori, AMO-insensitive strain NO. 3, read-out: MIC): 0.06 µg/mL (≈ 0.0802 µM); Antibody titer (average) ([10]; 30 mg/kg): 0.35; Number of Bacteria (average) (log CFU) ([10]; 30 mg/kg): 5.2 log CFU; Number of Ulcers discovered ([10]; 30 mg/kg, two times a day for two weeks): 4/5; responders at 30 mg/kg ([10]; Helicobacter pylori, ATCC43504, 336 h, 30 mg/kg, two times a day for two weeks, read-out: Eradication rate (%)): 20% |
| Gentamycin [GEM] |  |  |  |  |  |  |  |  |  |  |  |  |  |  |  |  |  |  |  | MIC [12]: 0.1 µg/mL; MIC [13]: 0.3 µg/mL; MIC [3]: 1.0 µg/mL; MIC [5]: 0.3 µg/mL; MIC [6]: 1.0 µg/mL; MIC [7]: 1.0 µg/mL; MIC [8]: 0.3 µg/mL; MIC [14]: 1.0 µg/mL; MIC [9]: 0.3 µg/mL |

From patent publication US8778975B2, “Helicobacter pylori eradicating agent having inhibitory activity on gastric acid secretion” (Link Geonomics, Inc., priority 2006, dated 2014)
